For the test, the target named is T1, CFTR (Homo sapiens, UniProt P13569).
T1 construct: results in the phosphorylation and opening of CFTR anion channels
Nature of the test: T84 assay (FLIPR membrane potential, forskolin/IBMX-stimulated CFTR channel activity). The class given is cell-based. The note with it: average of at least 2 runs unless annotated n = 1. How it is done:
(§1) For example, Human colonic T84 cells can be acquired from the European Collection of Cell Cultures (ECACC) and grown in standard culture conditions as described by the supplier. On the day before assay 25,000 T84 cells per well are plated into standard black walled, clear bottom 384-well assay plates in standard growth medium consisting of DMEM:F12 with 10% FBS and incubated overnight. On the day of the assay the plates are washed using a standard assay buffer (HBSS with 10 mM Hepes) and incubated for 15 minutes in serum free cell culture medium before the addition of a commercially available membrane potential sensitive fluorescent dye (FLIPR Red membrane potential dye, Molecular Devices Corporation). T84 cells are incubated with the FLIPR Red membrane potential dye for 45 minutes in the presence and absence of test compound before being transferred to a commercially available fluorescence imaging plate reader (FLIPR384, Molecular Devices Corporation). Fluorescence levels are monitored continuously every second for 150 seconds; after an initial 10 second baseline, CFTR channel activity is stimulated through the addition of 10 μM forskolin in the presence of 100 μM of the phosphodiesterase inhibitor iso-butyl-methylxanthine (IBMX). Addition of the forskolin leads to the activation of intracellular adenylyl cylase 1, elevating cAMP levels and results in the phosphorylation and opening of CFTR anion channels. CFTR channel opening causes chloride ion efflux and subsequent depolarization of the cells, which is measured by an increase in fluorescence. CFTR inhibitor compounds prevent cell depolarization and the associated increase in fluorescence.
as §1, with “Human colonic” for “For example, Human colonic”, “T84 cells are acquired from” for “T84 cells can be acquired from”, “(ECACC) and are grown in” for “(ECACC) and grown in”
Unless otherwise indicated, the IC50 values are reported as an average of at least 2 runs. Where only 1 run is used, this is indicated by the annotation “n=1.”

T1 sequence (P13569 whole entry): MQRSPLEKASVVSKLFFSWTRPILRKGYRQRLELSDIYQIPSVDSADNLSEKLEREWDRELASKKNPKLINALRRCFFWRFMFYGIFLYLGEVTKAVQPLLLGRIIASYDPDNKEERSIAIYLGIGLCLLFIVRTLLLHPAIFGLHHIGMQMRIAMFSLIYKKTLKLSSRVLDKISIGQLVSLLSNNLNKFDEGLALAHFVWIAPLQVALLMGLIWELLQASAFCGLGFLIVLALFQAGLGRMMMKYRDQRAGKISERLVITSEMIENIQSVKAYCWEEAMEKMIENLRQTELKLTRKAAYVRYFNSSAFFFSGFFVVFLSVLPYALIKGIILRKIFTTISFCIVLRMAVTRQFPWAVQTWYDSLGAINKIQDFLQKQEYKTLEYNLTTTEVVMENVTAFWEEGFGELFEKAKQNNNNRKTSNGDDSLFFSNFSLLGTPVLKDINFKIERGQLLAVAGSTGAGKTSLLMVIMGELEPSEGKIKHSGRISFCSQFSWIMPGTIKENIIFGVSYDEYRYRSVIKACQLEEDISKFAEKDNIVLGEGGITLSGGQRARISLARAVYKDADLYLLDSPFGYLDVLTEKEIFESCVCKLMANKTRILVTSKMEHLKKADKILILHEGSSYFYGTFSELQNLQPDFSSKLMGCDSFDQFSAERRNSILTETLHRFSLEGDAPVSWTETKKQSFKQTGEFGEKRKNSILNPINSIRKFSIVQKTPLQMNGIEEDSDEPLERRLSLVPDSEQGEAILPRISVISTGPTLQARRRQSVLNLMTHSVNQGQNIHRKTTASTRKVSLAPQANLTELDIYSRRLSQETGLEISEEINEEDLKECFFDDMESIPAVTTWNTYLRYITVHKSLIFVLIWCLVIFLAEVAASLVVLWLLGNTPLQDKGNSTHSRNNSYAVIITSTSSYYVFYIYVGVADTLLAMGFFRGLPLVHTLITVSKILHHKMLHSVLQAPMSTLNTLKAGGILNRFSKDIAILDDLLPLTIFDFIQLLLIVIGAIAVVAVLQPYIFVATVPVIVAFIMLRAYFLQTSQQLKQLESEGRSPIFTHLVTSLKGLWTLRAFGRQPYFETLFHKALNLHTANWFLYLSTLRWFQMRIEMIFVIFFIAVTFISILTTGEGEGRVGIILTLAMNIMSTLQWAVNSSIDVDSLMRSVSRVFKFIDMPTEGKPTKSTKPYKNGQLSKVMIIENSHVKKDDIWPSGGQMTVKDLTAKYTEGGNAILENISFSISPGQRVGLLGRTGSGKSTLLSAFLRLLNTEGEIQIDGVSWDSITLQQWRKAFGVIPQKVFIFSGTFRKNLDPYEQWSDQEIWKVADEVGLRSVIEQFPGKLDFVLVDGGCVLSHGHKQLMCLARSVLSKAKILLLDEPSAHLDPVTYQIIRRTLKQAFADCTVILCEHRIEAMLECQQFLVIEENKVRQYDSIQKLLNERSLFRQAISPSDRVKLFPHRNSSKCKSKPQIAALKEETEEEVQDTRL

By IC50 is commonly meant the concentration needed to halve the response being measured. Low readings indicate inhibition by little substance, high ones a need for much substance. Compound `Oc1c(Br)cc(-c2ccc(OCc3ccc(F)cc3Cl)nn2)cc1Br` [Compound 89, 2,6-dibromo-4-(6-(2-chloro-4-fluorobenzyloxy)pyridazin-3-yl)phenol] displayed an IC50 of 6.01 µM.

For `CC(Oc1ccc(-c2cc(Br)c(O)c(Br)c2)nn1)c1cccc(Cl)c1` (stereo not shown) [Compound 90, 2,6-dibromo-4-(6-(1-(3-chlorophenyl)ethoxy)pyridazin-3-yl)phenol], the IC50 came to 17.6 µM.

`Oc1c(Br)cc(-c2ccc(OCc3cccc(Br)c3)nn2)cc1Br` [Compound 91, 2,6-dibromo-4-(6-(3-bromobenzyloxy)pyridazin-3-yl)phenol] yielded a concentration for half-maximal inhibition (IC50) of 26.1 µM.

`Oc1c(Br)cc(-c2ccc(OCCc3ccc(Cl)cc3)nn2)cc1Br` [Compound 92, 2,6-dibromo-4-(6-(4-chlorophenethoxy)pyridazin-3-yl)phenol] had an IC50 of 3.38 µM. Compared with the last compound, the IC50 is about 7.7-fold lower.

The compound `Oc1c(Br)cc(-c2ccc(OCCc3ccc(Br)cc3)nn2)cc1Br` [Compound 93, 2,6-dibromo-4-(6-(4-bromophenethoxy)pyridazin-3-yl)phenol] yielded an IC50 of 4.2 µM.

With `Oc1c(Br)cc(-c2ccc(OCCc3cccc(Cl)c3Cl)nn2)cc1Br` [Compound 94, 2,6-dibromo-4-(6-(2,3-dichlorophenethoxy)pyridazin-3-yl)phenol], the IC50 stood at 8.03 µM.

In turn, `Oc1c(Br)cc(-c2ccc(OCc3cccc4ccccc34)nn2)cc1Br` [Compound 95, 2,6-dibromo-4-(6-(naphthalen-1-ylmethoxy)pyridazin-3-yl)phenol] showed an IC50 of 7.9 µM.

Take `Oc1c(Cl)cc(-c2ccc(OCc3ccc(F)cc3Cl)nn2)cc1Cl` [Compound 96, 2,6-dichloro-4-(6-(2-chloro-4-fluorobenzyloxy)pyridazin-3-yl)phenol]: the midpoint of inhibition, the IC50, lay at 3.74 µM.

As to `Oc1c(Br)cc(-c2ccc(OCc3cccc(Cl)c3Cl)nn2)cc1Br` [Compound 99, 2,6-dibromo-4-(6-(2,3-dichlorobenzyloxy)pyridazin-3-yl)phenol], the IC50 worked out at 12.4 µM.

The compound `Oc1c(Br)cc(-c2ccc(OCCc3cccc4ccccc34)nn2)cc1Br` [Compound 100, 2,6-dibromo-4-(6-(2-(naphthalen-1-yl)ethoxy)pyridazin-3-yl)phenol] returned an IC50 of 25.3 µM.

`CC(C)(C)OC(=O)N1CCC(COc2ccc(-c3cc(Cl)c(O)c(Cl)c3)nn2)(c2ccccc2)CC1` [Compound 101, tert-butyl 4-((6-(3,5-dichloro-4-hydroxyphenyl)pyridazin-3-yloxy)methyl)-4-phenylpiperidine-1-carboxylate] displayed an IC50 of 12.7 µM.

Compound `Oc1c(Cl)cc(-c2ccc(OCCc3cccs3)nn2)cc1Cl` [Compound 102, 2,6-dichloro-4-(6-(2-(thiophen-2-yl)ethoxy)pyridazin-3-yl)phenol] had an IC50 of 6.84 µM.

Turning to `Oc1c(Cl)cc(-c2ccc(OCCc3ccccc3)nn2)cc1Cl` [Compound 103, 2,6-dichloro-4-(6-phenethoxypyridazin-3-yl)phenol], half-maximal inhibition (IC50) was put at 5.75 µM.

`Oc1c(Cl)cc(-c2ccc(OCCc3cccc(Cl)c3)nn2)cc1Cl` [Compound 104, 2,6-dichloro-4-(6-(3-chlorophenethoxy)pyridazin-3-yl)phenol] had an IC50 of 10.4 µM.

As for `Oc1c(Cl)cc(-c2ccc(OCc3cnc(Br)s3)nn2)cc1Cl` [Compound 105, 4-(6-((2-bromothiazol-5-yl)methoxy)pyridazin-3-yl)-2,6-dichlorophenol], half-maximal inhibition (IC50) required 20.8 µM. This IC50 is about 2-fold higher than that of the compound before.

As for `Oc1c(Cl)cc(-c2ccc(OCc3ccsc3)nn2)cc1Cl` [Compound 106, 2,6-dichloro-4-(6-(thiophen-3-ylmethoxy)pyridazin-3-yl)phenol], half-maximal inhibition (IC50) was put at 19.5 µM. This IC50 and that of the compound before are within 1.5-fold of each other.

Regarding `CN(C)CCCOc1ccc(CN2CCC(COc3ccc(-c4cc(Cl)c(O)c(Cl)c4)nn3)(c3ccccc3)CC2)cc1` [Compound 107, 2,6-dichloro-4-(6-((1-(4-(3-(dimethylamino)propoxy)benzyl)-4-phenylpiperidin-4-yl)methoxy)pyridazin-3-yl)phenol], 2.85 µM corresponded to half-maximal inhibition (IC50).

Regarding `Oc1c(Cl)cc(-c2ccc(OCC3(c4ccccc4)CCN(Cc4ccc(Cl)nc4)CC3)nn2)cc1Cl` [Compound 108, 2,6-dichloro-4-(6-((1-((6-chloropyridin-3-yl)methyl)-4-phenylpiperidin-4-yl)methoxy)pyridazin-3-yl)phenol], the IC50 stood at 0.63 µM.

Compound `OCCN(Cc1cccnc1)c1ccc(-c2cc(Cl)c(O)c(Cl)c2)nn1` [Compound 109, 2,6-dichloro-4-(6-((2-hydroxyethyl)(pyridin-3-ylmethyl)amino)pyridazin-3-yl)phenol] came in with a half-maximal inhibitory concentration (IC50) of 4.72 µM.

In turn, `Oc1c(Cl)cc(-c2ccc(NCc3ccccc3)nn2)cc1Cl` [Compound 110, 4-(6-(benzylamino)pyridazin-3-yl)-2,6-dichlorophenol] came in with an IC50 of 0.73 µM.

In turn, `OCCN(Cc1ccc(F)cc1)c1ccc(-c2cc(Cl)c(O)c(Cl)c2)nn1` [Compound 111, 2,6-dichloro-4-(6-((4-fluorobenzyl)(2-hydroxyethyl)amino)pyridazin-3-yl)phenol] yielded a 50% inhibitory concentration (IC50) of 0.37 µM.

Consider `OCCN(Cc1ccccc1Cl)c1ccc(-c2cc(Cl)c(O)c(Cl)c2)nn1` [Compound 112, 2,6-dichloro-4-(6-((2-chlorobenzyl)(2-hydroxyethyl)amino)pyridazin-3-yl)phenol], for which it took 1.53 µM to reach half-maximal inhibition (IC50).

Consider `OCCN(Cc1ccccn1)c1ccc(-c2cc(Cl)c(O)c(Cl)c2)nn1` [Compound 113, 2,6-dichloro-4-(6-((2-hydroxyethyl)(pyridin-2-ylmethyl)amino)pyridazin-3-yl)phenol], for which the IC50 is 17.6 µM.

Compound `COCCN(Cc1ccccc1)c1ccc(-c2cc(Cl)c(O)c(Cl)c2)nn1` [Compound 114, 4-(6-(benzyl(2-methoxyethyl)amino)pyridazin-3-yl)-2,6-dichlorophenol] returned an IC50 of 0.13 µM.

`OCCN(Cc1ccncc1)c1ccc(-c2cc(Cl)c(O)c(Cl)c2)nn1` [Compound 116, 2,6-dichloro-4-(6-((2-hydroxyethyl)(pyridin-4-ylmethyl)amino)pyridazin-3-yl)phenol] showed an IC50 of 16.5 µM. This IC50 lies about 130-fold higher than the previous one.

In turn, `Oc1c(Cl)cc(-c2ccc(NCc3cc(F)ccc3F)nn2)cc1Cl` [Compound 117, 2,6-dichloro-4-(6-(2,5-difluorobenzylamino)pyridazin-3-yl)phenol] showed an IC50 of 1.36 µM.

In turn, `CN(Cc1ccccc1)c1ccc(-c2cc(Cl)c(O)c(Cl)c2)nn1` [Compound 118, 4-(6-(benzyl(methyl)amino)pyridazin-3-yl)-2,6-dichlorophenol] had an IC50 of 0.06 µM. This IC50 is about 23-fold lower than that of the compound before.

As for `Oc1c(Cl)cc(-c2ccc(OCc3ccccc3)nn2)cc1Cl` [Compound 119, 4-(6-(benzyloxy)pyridazin-3-yl)-2,6-dichlorophenol], the IC50 was determined as 2.76 µM. This IC50 is about 46-fold higher than that of the compound before.

Take `CN(Cc1cccc(Oc2ccccn2)c1)c1ccc(-c2cc(Cl)c(O)c(Cl)c2)nn1` [Compound 120, 2,6-dichloro-4-(6-(methyl(3-(pyridin-2-yloxy)benzyl)amino)pyridazin-3-yl)phenol]: the IC50 is 1.71 µM.

Compound `CN(Cc1ccc(F)c(F)c1)c1ccc(-c2cc(Cl)c(O)c(Cl)c2)nn1` [Compound 121, 2,6-dichloro-4-(6-((3,4-difluorobenzyl)(methyl)amino)pyridazin-3-yl)phenol] returned a half-maximal inhibitory concentration (IC50) of 0.23 µM.

In the case of `Oc1c(Cl)cc(-c2ccc(N3CCc4ccccc4C3)nn2)cc1Cl` [Compound 122, 2,6-dichloro-4-(6-(3,4-dihydroisoquinolin-2(1H)-yl)pyridazin-3-yl)phenol], the IC50 amounted to 0.15 µM.

`OCCN(Cc1cccc(Cl)c1Cl)c1ccc(-c2cc(Cl)c(O)c(Cl)c2)nn1` [Compound 123, 2,6-dichloro-4-(6-((2,3-dichlorobenzyl)(2-hydroxyethyl)amino)pyridazin-3-yl)phenol] registered an IC50 of 1.41 µM.

In the case of `CN(Cc1cccnc1)c1ccc(-c2cc(Cl)c(O)c(Cl)c2)nn1` [Compound 124, 2,6-dichloro-4-(6-(methyl(pyridin-3-ylmethyl)amino)pyridazin-3-yl)phenol], the IC50 amounted to 1.65 µM.

Compound `CN(Cc1ccc(-c2ccncc2)cc1)c1ccc(-c2cc(Cl)c(O)c(Cl)c2)nn1` [Compound 125, 2,6-dichloro-4-(6-(methyl(4-(pyridin-4-yl)benzyl)amino)pyridazin-3-yl)phenol] came in with a concentration for half-maximal inhibition (IC50) of 2.05 µM.
